Laboratory results published in publication PMC6566077 (Chemical Science, 2019).
≈ marks a conversion by molar mass, not a printed value. Where two headings read alike, the source gives them in different places.

Assays:
[1] = test system: Mycobacterium tuberculosis; assay: microbe, parasite or virus in culture; type: cell-based, Mycobacterium tuberculosis H37Rv
M. tuberculosis H37Rv [2] = type: cell-based, Mycobacterium tuberculosis H37Rv; details: for Outcome, interaction profile with Meropenem / ΣFIC, interaction profile with Meropenem: M. tuberculosis H37Rv, checkerboard; for Interaction with meropenem in checkerboard assay (words, Figure S7): representative checkerboard images
[3] = type: binding; details: for BLI binding to boronic acid functionalised sensor: components 0-100 µg/mL; for Kd: BLI, steady-state model, boronic acid functionalised sensor
Mycobacterium smegmatis = assay: microbe, parasite or virus in culture; type: cell-based, Mycobacterium smegmatis MC2155; details: for MIC: Mycolicibacterium smegmatis, read-out: MIC Mycobacteria, Mycobacterium smegmatis
Mycobacterium bovis BCG = assay: microbe, parasite or virus in culture; type: cell-based; details: for MIC: Mycobacterium tuberculosis variant bovis BCG, BCG, read-out: MIC Mycobacteria, Mycobacterium bovis BCG
Escherichia coli = assay: microbe, parasite or virus in culture; type: cell-based, Escherichia coli (Top 10)
Pseudomonas putida = assay: microbe, parasite or virus in culture; type: cell-based
[4] = test system: Mycobacterium tuberculosis H37Rv; assay: Minimum bactericidal concentration (MBC), CFU plating; type: cell-based; details: actively growing M. tuberculosis H37Rv, lowest concentration with no CFUs
Jurkat E6.1 cells = assay: Cytotoxicity assay (resazurin, 24 h); type: cell-based, human; details: 24 h exposure, viability by resazurin
Caco-2 cells = assay: Cytotoxicity assay (resazurin, 24 h); type: cell-based, human; details: 24 h exposure, viability by resazurin
Haemolysis assay = type: cell-based; details: sheep, ovine red blood cells, versus 100% lysis with lysis buffer
Procedure: (§1) Following incubation for 24 hours at
(§2) at 570 nm (BioTek Synergy HT microplate reader). All assays were undertaken with 3 independent experimental
(§3) Two-fold serial dilutions were then carried out diluting
(§4) 100 μL of ovine blood was
(§5) HT Microplate Reader). […] All assays
(§6) were undertaken with 3 independent experimental repeats.
(§7) DMSO compounds for compounds 3, 6 and 8.
(§8) Following addition of the
(§9) red colouring across whole well = agglutination). All assays were undertaken with three independent experimental

[5] = test system: ConA mediated agglutination of ovine blood; type: cell-based
M. tuberculosis H37Rv [6] = type: cell-based, Mycobacterium tuberculosis H37Rv; details: checkerboard
A549 cells [7] = assay: Cytotoxicity assay (resazurin, 24 h); details: 24 h exposure, viability by resazurin
ovine red blood cells = assay: Haemolysis assay; type: cell-based; details: 1 hour, tested at 12.5 mM due to solubility issues
Procedure: as §1, §2, §3, §4, §5, §6, §7, §8, §9

A549 cells [8] = test system: A549 cells
[9] = Mycobacterium tuberculosis; M. tuberculosis H37Rv, compound alone, REMA checkerboard (Table S3); read-out: MIC
[10] = Mycobacterium tuberculosis; read-out: MIC Mycobacteria, Mycobacterium tuberculosis
[11] = Escherichia coli; read-out: MIC Gram-negative, Escherichia coli
[12] = Pseudomonas putida; read-out: MIC Gram-negative, Pseudomonas putida

## CC1(C)[C@H](C(=O)O)N2C(=O)C[C@H]2S1(=O)=O [Sulbactam, reference compound]
[1]; [9]
  MIC: 0.134 mM
M. tuberculosis H37Rv [2]
  Outcome, interaction profile with Meropenem: Synergistic (ΣFICs of ≤0.5 designate synergistic activity)
  ΣFIC, interaction profile with Meropenem: 0.313
  Interaction with meropenem in checkerboard assay (words, Figure S7): synergistic activity
M. tuberculosis H37Rv [2]; listed as sulbactam
  ΣFIC, interaction profile with Meropenem: 0.3

## Phosphatidylinositol Mannosides 1 & 2 [PIM 1 + 2]
[3]
  BLI binding to boronic acid functionalised sensor: very weak binding

## Lipomannan [LM]
[3]
  BLI binding to boronic acid functionalised sensor: interacted strongly

## Galactan [reference compound]
[3]
  BLI binding to boronic acid functionalised sensor: no binding was observed

## Phosphatidylinositol Mannoside 6 [PIM6]
[3]
  BLI binding to boronic acid functionalised sensor: weak binding affinity

## O=C(NCCCOCCOCCOCCCNC(=O)c1cccc(B(O)O)c1)c1cccc(B(O)O)c1 [Compound 6, N,N'-(4,7,10-trioxa-1,13-tridecanediamine)bis(3-phenylboronic acid)amide]
Mycobacterium smegmatis
  MIC: 3.13 mM (≈ 1620 µg/mL)
Mycobacterium bovis BCG
  MIC: 0.78 to 1.56 mM (≈ 403 to 805 µg/mL)
[1]; [9]
  MIC: 1.56 mM
[1]; [10]
  MIC: 1.56 to 3.13 mM (≈ 805 to 1620 µg/mL)
Escherichia coli; [11]
  MIC: > 25 mM
Pseudomonas putida; [12]
  MIC: > 25 mM
[4]
  MBC: 6.25 mM (≈ 3230 µg/mL)
Jurkat E6.1 cells
  Jurkat (MIC99): 25 mM
Caco-2 cells
  Caco-2 (MIC99): 25 mM
Haemolysis assay
  hemolysis at 1 h: 0%
[5]
  ConA agglutination: No inhibition
M. tuberculosis H37Rv [6]
  Outcome, interaction profile with Rifampicin: Additive (values in between correspond to additivity)
  ΣFIC, interaction profile with Rifampicin: 2
M. tuberculosis H37Rv [2]
  Outcome, interaction profile with Meropenem: Additive (values in between correspond to additivity)
  ΣFIC, interaction profile with Meropenem: 0.625
  Interaction with meropenem in checkerboard assay (words, Figure S7): additivity
A549 cells [7]
  A549 (MIC99): 25 mM

## O=C(CCN(CCOCCOCCN(CCC(=O)NCCOCCOCCNC(=O)c1cccc(B(O)O)c1)CCC(=O)NCCOCCOCCNC(=O)c1cccc(B(O)O)c1)CCC(=O)NCCOCCOCCNC(=O)c1cccc(B(O)O)c1)NCCOCCOCCNC(=O)c1cccc(B(O)O)c1 [Compound 8, 2,2’-(Ethylenedioxy)bis(ethylamine) G1 PAMAM tetra(3-phenylboronic acid)amide dendrimer]
Mycobacterium smegmatis
  MIC Mycobacteria, Mycobacterium smegmatis: 0.78 mM (≈ 1210 µg/mL)
Mycobacterium bovis BCG; resazurin reduction microtitre plate assay
  MIC Mycobacteria, Mycobacterium bovis BCG: 1.56 mM (≈ 2420 µg/mL)
[1]
  MIC Mycobacteria, Mycobacterium tuberculosis: 0.78 to 1.56 mM
  MIC against Mtb: 0.78 mM (≈ 1210 µg/mL)
Escherichia coli
  MIC Gram-negative, Escherichia coli: >25 mM
Pseudomonas putida
  MIC Gram-negative, Pseudomonas putida: >25 mM
Ovine red blood cells
  Haemolysis (%): 4.5%
A549 cells [8]
  A549 (MIC99): > 25 mM

## Trehalose Monomycolate [TMM]
[3]; read-out: Kd
  Kd: 12 µM
[3]
  BLI binding to boronic acid functionalised sensor: interacted strongly

## mycolic acid methyl esters [MAMEs]
[3]
  BLI binding to boronic acid functionalised sensor: no detectable binding

## Trehalose Dimycolate [TDM]
[3]; read-out: Kd
  Kd: 4 µM
[3]
  BLI binding to boronic acid functionalised sensor: interacted strongly

## lipopolysaccharide [LPS, reference compound]
[3]
  BLI binding to boronic acid functionalised sensor: weak binding

## OB(O)c1ccccc1 [Compound 1, reference compound]
Mycobacterium smegmatis
  MIC: 12.5 to 25 mM (≈ 1520 to 3050 µg/mL)
Mycobacterium bovis BCG
  MIC: 3.13 mM (≈ 382 µg/mL)
[1]; [10]
  MIC: 6.25 to 12.5 mM (≈ 762 to 1520 µg/mL)
Escherichia coli; [11]
  MIC: 25 mM (≈ 3050 µg/mL)
Pseudomonas putida; [12]
  MIC: 12.5 to 25 mM (≈ 1520 to 3050 µg/mL)
Haemolysis assay
  hemolysis at 1 h: 0%
A549 cells [7]
  A549 (MIC99): 50 mM

## O=C(O)c1ccc(B(O)O)cc1 [Compound 3, reference compound]
Mycobacterium smegmatis
  MIC: 25 mM (≈ 4150 µg/mL)
Mycobacterium bovis BCG
  MIC: 6.25 mM (≈ 1040 µg/mL)
[1]; Mycobacterium tuberculosis, read-out: MIC Mycobacteria, Mycobacterium tuberculosis
  MIC: 6.25 mM (≈ 1040 µg/mL)
Escherichia coli; Escherichia coli, read-out: MIC Gram-negative, Escherichia coli
  MIC: > 25 mM
Pseudomonas putida; Pseudomonas putida, read-out: MIC Gram-negative, Pseudomonas putida
  MIC: 25 mM (≈ 4150 µg/mL)
Haemolysis assay
  hemolysis at 1 h: 0.9%
A549 cells [7]
  A549 (MIC99): > 25 mM

## Lipoarabinomannan [LAM]
[3]
  Kd: 41.5 μg mL^–1
  BLI binding to boronic acid functionalised sensor: interacted strongly

## O=C(O)c1cccc(B(O)O)c1 [Compound 2, reference compound]
Mycobacterium smegmatis
  MIC: 12.5 to 25 mM (≈ 2070 to 4150 µg/mL)
Mycobacterium bovis BCG
  MIC: 12.5 mM (≈ 2070 µg/mL)
[1]; [10]
  MIC: 6.25 to 12.5 mM (≈ 1040 to 2070 µg/mL)
Escherichia coli; [11]
  MIC: > 25 mM
Pseudomonas putida; [12]
  MIC: 12.5 to 25 mM (≈ 2070 to 4150 µg/mL)
Haemolysis assay
  hemolysis at 1 h: 4.5%
A549 cells [7]
  A549 (MIC99): > 25 mM

## monosialodihexosylganglioside [GM3, reference compound]
[3]
  BLI binding to boronic acid functionalised sensor: no detectable binding

## O=C(NCCOCCOCCNC(=O)c1cccc(B(O)O)c1)c1cccc(B(O)O)c1 [Compound 5, N,N'-(2,2-(ethylenedioxy)bis(ethylamine))bis(3-phenylboronic acid)amide]
Mycobacterium smegmatis
  MIC: 3.13 mM (≈ 1390 µg/mL)
Mycobacterium bovis BCG
  MIC: 0.78 to 1.56 mM (≈ 346 to 693 µg/mL)
[1]; [9]
  MIC: 3.13 mM
[1]; [10]
  MIC: 1.56 to 3.13 mM (≈ 693 to 1390 µg/mL)
Escherichia coli; [11]
  MIC: > 25 mM
Pseudomonas putida; [12]
  MIC: > 25 mM
[4]
  MBC: 6.25 mM (≈ 2780 µg/mL)
Jurkat E6.1 cells
  Jurkat (MIC99): 12.5 mM
Caco-2 cells
  Caco-2 (MIC99): 50 mM
Haemolysis assay
  hemolysis at 1 h: 0%
[5]
  ConA agglutination: No inhibition
M. tuberculosis H37Rv [6]
  Outcome, interaction profile with Rifampicin: Additive (values in between correspond to additivity)
  ΣFIC, interaction profile with Rifampicin: 2
M. tuberculosis H37Rv [2]
  Outcome, interaction profile with Meropenem: Additive (values in between correspond to additivity)
  ΣFIC, interaction profile with Meropenem: 0.625
A549 cells [7]
  A549 (MIC99): 25 mM

## O=C(NCCOCCOCCOCCOCCOCCOCCOCCOCCOCCOCCOCCOCCOCCOCCOCCOCCOCCOCCOCCOCCOCCOCCOCCNC(=O)c1cccc(B(O)O)c1)c1cccc(B(O)O)c1 [Compound 7, N,N'-(polyoxyethylenebis(amine))bis(3-phenylboronic acid)amide]
Mycobacterium smegmatis
  MIC: 25 mM (≈ 34200 µg/mL)
Mycobacterium bovis BCG
  MIC: > 25 mM
Escherichia coli; [11]
  MIC: > 25 mM
Pseudomonas putida; [12]
  MIC: > 25 mM

## O=C(NCCNC(=O)c1cccc(B(O)O)c1)c1cccc(B(O)O)c1 [Compound 4, N,N'-(ethylenediamine)bis(3-phenylboronic acid)amide]
Mycobacterium smegmatis
  MIC: 3.13 mM (≈ 1110 µg/mL)
Mycobacterium bovis BCG
  MIC: 0.78 mM (≈ 278 µg/mL)
[1]; [9]
  MIC: 3.13 mM
[1]; [10]
  MIC: 1.56 to 3.13 mM (≈ 555 to 1110 µg/mL)
Escherichia coli; [11]
  MIC: > 25 mM
Pseudomonas putida; [12]
  MIC: > 25 mM
[4]
  MBC: 6.25 mM (≈ 2220 µg/mL)
Jurkat E6.1 cells
  Jurkat (MIC99): 12.5 mM
Caco-2 cells
  Caco-2 (MIC99): 50 mM
Haemolysis assay
  hemolysis at 1 h: 0%
[5]
  ConA agglutination: No inhibition
M. tuberculosis H37Rv [6]
  Outcome, interaction profile with Rifampicin: Additive (values in between correspond to additivity)
  ΣFIC, interaction profile with Rifampicin: 2
M. tuberculosis H37Rv [2]
  Outcome, interaction profile with Meropenem: Additive (values in between correspond to additivity)
  ΣFIC, interaction profile with Meropenem: 1
A549 cells [7]
  A549 (MIC99): 25 mM

## dextran [reference compound]
[3]
  BLI binding to boronic acid functionalised sensor: no binding was observed
